Tests used:
Experiment in all cases: combination Emax (second highest fraction inhibited in the dose matrix, 72 h); higher = more inhibition; extreme values may be limits of the assay
[1] = test system: WSU-NHL (B-Cell Non-Hodgkin's Lymphoma)
Procedure, shortened: (§1)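 Cell lines grown in DMEM/F12 or RPMI with 10% FBS were plated in 1536-well plates and held 24 hours at 37°C, 5% CO2 before 72 hours of exposure to two-drug dose matrices, with DMSO typically at 0.2%. CellTiter-Glo 2.0 luminescence gave viability, which was converted to inhibition. Vehicle wells were set to 0 and blank wells to 1. Combination Emax is the second-highest inhibition in the matrix, and Bliss excess is the observed combination effect minus the expected EA + EB − EA·EB, where EA and EB are the single-agent effects.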

[2] = test system: OV-56 (Ovarian Carcinoma)
Procedure, shortened: as §1

[3] = test system: BE-13 (T-Lymphoblastic Leukemia)
Procedure, shortened: as §1

[4] = test system: MPP-89 (Mesothelioma)
Procedure, shortened: as §1

[5] = test system: BFTC-909 (Kidney Carcinoma)
Procedure, shortened: as §1

[6] = test system: YAPC (Pancreatic Carcinoma)
Procedure, shortened: as §1

[7] = test system: LS-123 (Colorectal Carcinoma)
Procedure, shortened: as §1

[8] = test system: GAMG (Glioblastoma)
Procedure, shortened: as §1

[9] = test system: HuH-7 (Hepatocellular Carcinoma)
Procedure, shortened: as §1

[10] = test system: SNU-449 (Hepatocellular Carcinoma)
Procedure, shortened: as §1

[11] = test system: NCI-H1568 (Lung Adenocarcinoma)
Procedure, shortened: as §1

[12] = test system: LOXIMVI (Melanoma)
Procedure, shortened: as §1

[13] = test system: KYAE-1 (Esophageal Adenocarcinoma)
Procedure, shortened: as §1

[14] = test system: BPH-1 (Non-Cancerous)
Procedure, shortened: as §1

[15] = test system: KMRC-20 (Kidney Carcinoma)
Procedure, shortened: as §1

[16] = test system: SW1710 (Bladder Carcinoma)
Procedure, shortened: as §1

[17] = test system: KS-1 (Glioblastoma)
Procedure, shortened: as §1

[18] = test system: HH (T-Cell Non-Hodgkin's Lymphoma)
Procedure, shortened: as §1

[19] = test system: CAL-33 (Oral Cavity Carcinoma)
Procedure, shortened: as §1

[20] = test system: ALL-PO (B-Lymphoblastic Leukemia)
Procedure, shortened: as §1

SMILES	combination Emax [1]	combination Emax [2]	combination Emax [3]	combination Emax [4]	combination Emax [5]	combination Emax [6]	combination Emax [7]	combination Emax [8]	combination Emax [9]	combination Emax [10]	combination Emax [11]	combination Emax [12]	combination Emax [13]	combination Emax [14]	combination Emax [15]	combination Emax [16]	combination Emax [17]	combination Emax [18]	combination Emax [19]	combination Emax [20]
Cc1c2c(nn1C)CSCc1cc(n(C)n1)CSc1cc(c3ccccc3c1)OCCCc1c(C(=O)O)n(C)c3c-2c(Cl)ccc13 [AZD5991] + C1CN(CCC1(C(=O)N[C@@H](CCO)C2=CC=C(C=C2)Cl)N)C3=NC=NC4=C3C=CN4 [Capivasertib] (first compound max 1 µM, 7x7, partner max 3 µM)	0.9	0.169	0.38	0.268	0.446	0.149	0.281	0.477	0.208	0.182	0.191	0.313	0.334	0.469	0.223	0.256	0.338	0.928	0.347	1
C=CCn1c(=O)c2cnc(Nc3ccc(N4CCN(C)CC4)cc3)nc2n1-c1cccc(C(C)(C)O)n1 [AZD1775] + C[C@@H]1COCCN1C2=NC(=NC(=C2)C3(CC3)[S@](=N)(=O)C)C4=C5C=CNC5=NC=C4 [AZD6738] (first compound max 1 µM, partner max 10 µM)	1	0.849	1	0.737	0.906	0.492	0.892	0.596	0.487	0.409	0.487	0.883	0.588	0.588	0.763	0.713	0.66	0.583	0.935	0.977
CC1(C)CCC(CN2CCN(c3ccc(C(=O)NS(=O)(=O)c4ccc(NCC5CCOCC5)c([N+](=O)[O-])c4)c(Oc4cnc5[nH]ccc5c4)c3)CC2)=C(c2ccc(Cl)cc2)C1 [Venetoclax] + COc1cc(Nc2ncc3c(n2)-c2ccc(Cl)cc2C(c2c(F)cccc2OC)=NC3)ccc1C(=O)O [Alisertib] (first compound max 1 µM, 7x7, partner max 10 µM)	0.985	0.225	0.918	0.566	0.502	0.142	0.385	0.662	0.791	0.313	0.259	0.5	0.128	0.745	0.654	0.306	0.635	0.222	0.714	1
C[C@@H]1COCCN1c1cc(C2([S@](C)(=N)=O)CC2)nc(-c2ccnc3[nH]ccc23)n1 [AZD6738] + O=C(c1cc(Cc2n[nH]c(=O)c3ccccc23)ccc1F)N1CCN(C(=O)C2CC2)CC1 [Olaparib] (first compound max 10 µM, 7x7, partner max 10 µM)	0.989	0.69	0.702	0.619	0.728	0.288	0.764	0.388	0.357	0.234	0.416	0.978	0.139	0.51	0.542	0.495	0.573	0.209	0.763	0.955
CCN(CCO)CCCOc1ccc2c(Nc3cc(CC(=O)Nc4cccc(F)c4)[nH]n3)ncnc2c1 [AZD2811] + C[C@@H]1COCCN1C2=NC(=NC(=C2)C3(CC3)[S@](=N)(=O)C)C4=C5C=CNC5=NC=C4 [AZD6738] (first compound max 1 µM, 7x7, partner max 10 µM)	0.967	0.609	0.732	0.646	0.777	0.288	0.632	0.399	0.293	0.176	0.397	0.746	0.122	0.4	0.596	0.398	0.576	0.179	0.936	0.979
CC1(C)CCC(CN2CCN(c3ccc(C(=O)NS(=O)(=O)c4ccc(NCC5CCOCC5)c([N+](=O)[O-])c4)c(Oc4cnc5[nH]ccc5c4)c3)CC2)=C(c2ccc(Cl)cc2)C1 [Venetoclax] + CCN(CCO)CCCOc1ccc2c(Nc3cc(CC(=O)Nc4cccc(F)c4)[nH]n3)ncnc2c1 [AZD2811] (first compound max 1 µM, 7x7, partner max 1 µM)	0.782	0.195	0.881	0.284	0.215	0.157	0.162	0.598	0.194	0.239	0.209	0.21	0.163	0.416	0.2	0.248	0.341	0.18	0.594	1

Reference: the supplement of paper PMC11061612
